Reference: ChEMBL document CHEMBL1130353, “Conformational studies of paclitaxel analogs modified at the C-2' position in hydrophobic and hydrophilic solvent systems” (J Med Chem, 1997)

Tests used:
Format in all cases: functional, cell-based
EMT6 = experiment: Inhibitory activity of compound against murine mammary adenocarcinoma (EMT-6) cell proliferation; details: Mus musculus
J774 = experiment: Inhibitory activity of compound against murine macrophage-like (J774.2) cell proliferation; details: Mus musculus
OV-1063 = experiment: Inhibitory activity of compound against human ovarian carcinoma (OV-1063) Cell proliferation

`CC(=O)O[C@H]1C(=O)[C@@]2(C)[C@H]([C@H](OC(=O)c3ccccc3)[C@]3(O)C[C@H](OC(=O)[C@H](O)[C@@H](NC(=O)c4ccccc4)c4ccccc4)C(C)=C1C3(C)C)[C@]1(OC(C)=O)CO[C@@H]1C[C@@H]2O` [PACLITAXEL] showed an IC50 (EMT6) of 9 nM, an IC50 (J774) of 15 nM and an IC50 (OV-1063) of 15 nM.

`CO[C@@H](C(=O)O[C@H]1C[C@@]2(O)[C@@H](OC(=O)c3ccccc3)C3[C@]4(OC(C)=O)COC4C[C@H](O)[C@@]3(C)C(=O)[C@H](OC(C)=O)C(=C1C)C2(C)C)[C@@H](NC(=O)c1ccccc1)c1ccccc1` (some centres undefined) showed an IC50 (EMT6) of 270 nM, an IC50 (J774) of 470 nM and an IC50 (OV-1063) of 270 nM.

In the case of `CC(=O)O[C@H]1C(=O)[C@@]2(C)C([C@H](OC(=O)c3ccccc3)[C@]3(O)C[C@H](OC(=O)C[C@@H](NC(=O)c4ccccc4)c4ccccc4)C(C)=C1C3(C)C)[C@]1(OC(C)=O)COC1C[C@@H]2O` (some centres undefined), the IC50 (EMT6) is reported as 300 nM, the IC50 (J774) is reported as 400 nM and the IC50 (OV-1063) is reported as 450 nM.
